Measurements published in patent US20210017174A1, “IDENTIFICATION AND USE OF ERK5 INHIBITOR” (Bayer Aktiengesellschaft, priority 2018, published 2021).
pIC50: −log10 of the molar value.

Columns and labels:
[1] = target: T1, ERK5 (Homo sapiens, UniProt Q13164); test: TR-FRET-based Erk5 activity inhibition assay (biochemical assay ERK5); conditions: TR-FRET, 250 μM ATP, 1 μM substrate peptide, 60 min at 22° C.; read-out: IC50 value biochemiocal ERK5 asssay
T1 construct: host or cells: E. coli

[2] = system: SN12C-MEF2-luc (clone #37) reporter cell line; test: Luciferase reporter assay in SN12C-MEF2-luc cells (EGF-stimulated, MEF2-responsive luciferase); assay type: cell-based; conditions: Homo sapiens, 16 h compound incubation, then EGF 100 ng/ml for 2 h, ONE-Glo luminescence;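 further: serially diluted compounds at 37 °C, EGF with DMSO as maximum signal and EGF with a 10 µM reference inhibitor as minimum (full inhibition)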

T1 sequence (Q13164 1-398): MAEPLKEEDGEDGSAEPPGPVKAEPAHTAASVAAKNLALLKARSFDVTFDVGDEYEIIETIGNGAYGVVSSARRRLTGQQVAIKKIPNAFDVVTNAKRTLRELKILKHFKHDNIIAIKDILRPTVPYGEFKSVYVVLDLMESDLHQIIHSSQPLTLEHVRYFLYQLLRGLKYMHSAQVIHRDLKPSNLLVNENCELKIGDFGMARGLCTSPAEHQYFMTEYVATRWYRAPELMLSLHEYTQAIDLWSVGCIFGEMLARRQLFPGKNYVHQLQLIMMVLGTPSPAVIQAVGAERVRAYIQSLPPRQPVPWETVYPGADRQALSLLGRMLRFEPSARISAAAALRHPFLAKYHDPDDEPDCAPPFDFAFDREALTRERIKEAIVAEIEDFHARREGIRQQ

pIC50 [1] | pIC50 [2] | SMILES
6.24 | 4.84 | COC(=O)c1ccc2c(C3CCN(C(=O)c4ccc(OC(F)(F)F)cc4)CC3)ncnc2c1 [Example 31, Methyl 4-{1-[4-(trifluoromethoxy)benzoyl]piperidin-4-yl}quinazoline-7-carboxylate]
7.61 | 6.30 | O=C(c1ccc(OC(F)(F)F)cc1)N1CCC(c2ncnc3cc(C4=CCOCC4)ccc23)CC1 [Example 52, {4-[7-(3,6-Dihydro-2H-pyran-4-yl)quinazolin-4-yl]piperidin-1-yl}[4-(trifluoro-methoxy)phenyl]-methanone]
6.72 | 6.03 | O=C(c1ccc(OC(F)(F)F)cc1)N1CCC(c2ncnc3cc(N4CCCC4=O)ccc23)CC1 [Example 54, 1-(4-{1-[4-(Trifluoromethoxy)benzoyl]piperidin-4-yl}quinazolin-7-yl)pyrrolidin-2-one]
6.96 | 5.61 | O=C(c1ccc(OC(F)(F)F)cc1)N1CCC(c2ncnc3cc(OCCO)ccc23)CC1 [Example 47, {4-[7-(2-Hydroxyethoxy)quinazolin-4-yl]piperidin-1-yl}[4-(trifluoromethoxy)-phenyl]methanone]
6.78 | 6.41 | CC(=O)NCCOc1ccc2c(C3CCN(C(=O)c4ccc(OC(F)(F)F)cc4)CC3)ncnc2c1 [Example 50, N-{2-[(4-{1-[4-(Trifluoromethoxy)benzoyl]piperidin-4-yl}quinazolin-7-yl)oxy]ethyl}acetamide]
6.84 | 6.45 | O=C(c1ccc(OC(F)(F)F)cc1)N1CCC(c2ncnc3cc(OC4CCOCC4)ccc23)CC1 [Example 49, {4-[7-(Tetrahydro-2H-pyran-4-yloxy)quinazolin-4-yl]piperidin-1-yl}[4-(trifluoromethoxy)phenyl]-methanone]
7.37 | 6.23 | O=C(c1ccc(OC(F)(F)F)cc1)N1CCC(c2ncnc3cc(C4CC4)ccc23)CC1 [Example 51, [4-(7-Cyclopropylquinazolin-4-yl)piperidin-1-yl][4-(trifluoromethoxy)phenyl]-methanone]
7.16 | 6.38 | O=C(c1ccc(OC(F)(F)F)cc1)N1CCC(c2ncnc3cc(N4CCC(F)(F)C4)cnc23)CC1 [Example 72, {4-[7-(3,3-Difluoropyrrolidin-1-yl)pyrido[3,2-d]pyrimidin-4-yl]piperidin-1-yl}[4-(trifluoromethoxy)phenyl]methanone]
6.82 | 6.36 | CN1CCC(Nc2cnc3c(C4CCN(C(=O)c5ccc(OC(F)(F)F)cc5)CC4)ncnc3c2)CC1 [Example 71, (4-{7-[(1-Methylpiperidin-4-yl)amino]pyrido[3,2-d]pyrimidin-4-yl}piperidin-1-yl)[4-(trifluoromethoxy)phenyl]methanone]
5.96 | 5.15 | CNC(=O)c1ccc2c(C3CCN(C(=O)c4ccc(OC(F)(F)F)cc4)CC3)ncnc2c1 [Example 41, N-Methyl-4-{1-[4-(trifluoromethoxy)benzoyl]piperidin-4-yl}quinazoline-7-carboxamide]

Second part, the compound before the results:

SMILES | pIC50 [1] | pIC50 [2]
COc1cc2ncnc(C3CCN(C(=O)c4ccc(OC(C)(C)C)cc4)CC3)c2cc1OC [Example 25, (4-Tert-butoxyphenyl)[4-(6,7-dimethoxyquinazolin-4-yl)piperidin-1-yl]methanone] | 5.99 | 5.17
O=C(c1ccc(OC(F)(F)F)cc1)N1CCC(c2ncnc3cc(N4CCC(F)(F)CC4)cnc23)CC1 [Example 77, {4-[7-(4,4-Difluoropiperidin-1-yl)pyrido[3,2-d]pyrimidin-4-yl]piperidin-1-yl}[4-(trifluoromethoxy)phenyl]methanone] | 7.52 | 6.88
CCCCOc1ccc(C(=O)N2CCC(c3ncnc4cc(OC)c(OC)cc34)CC2)cc1 [Example 17, (4-Butoxyphenyl)[4-(6,7-dimethoxyquinazolin-4-yl)piperidin-1-yl]methanone] | 6.95 | 4.88
C=CCOc1ccc(C(=O)N2CCC(c3ncnc4cc(OC)c(OC)cc34)CC2)cc1 [Example 27, [4-(6,7-Dimethoxyquinazolin-4-yl)piperidin-1-yl][4-(prop-2-en-1-yloxy)phenyl]-methanone] | 6.40 | 5.31
COc1cc2ncnc(C3CCN(C(=O)c4ccc(OC(F)(F)F)cc4F)CC3)c2cc1OC [Example 2, [4-(6,7-Dimethoxyquinazolin-4-yl)piperidin-1-yl][2-fluoro-4-(trifluoromethoxy)phenyl]methanone] | 7.03 | 6.03
CC1(N)CCN(c2cnc3c(C4CCN(C(=O)c5ccc(OC(F)(F)F)cc5)CC4)ncnc3c2)CC1 [Example 73, {4-[7-(4-Amino-4-methylpiperidin-1-yl)pyrido[3,2-d]pyrimidin-4-yl]piperidin-1-yl}[4-(trifluoromethoxy)phenyl]methanone] | 7.41 | 6.60
CC1(C)CN(c2cnc3c(C4CCN(C(=O)c5ccc(OC(F)(F)F)cc5)CC4)ncnc3c2)CCO1 [Example 78, {4-[7-(2,2-Dimethylmorpholin-4-yl)pyrido[3,2-d]pyrimidin-4-yl]piperidin-1-yl}[4-(trifluoromethoxy)phenyl]methanone] | 7.44 | 6.99
